The values below are quoted from earlier work in patent US10596120B2, “Pharmaceutical compositions” (Boehringer Ingelheim International GmbH, priority 2011, dated 2020).

For this series the following is noted: metformin on its own, in the diabetic.

With `CN(C)C(=N)N=C(N)N` [metformin], the “average improvement in the HbA1c value” is on record as 1.0-1.5%.
